For assay [1], the target named is T1, hMCP-1 receptor (Homo sapiens, UniProt P41597).
T1 construct: endogenous in cells; host or cells: human PBMCs from fresh donor blood (whole cells)
T1 sequence (P41597 1-360 isoform P41597-2): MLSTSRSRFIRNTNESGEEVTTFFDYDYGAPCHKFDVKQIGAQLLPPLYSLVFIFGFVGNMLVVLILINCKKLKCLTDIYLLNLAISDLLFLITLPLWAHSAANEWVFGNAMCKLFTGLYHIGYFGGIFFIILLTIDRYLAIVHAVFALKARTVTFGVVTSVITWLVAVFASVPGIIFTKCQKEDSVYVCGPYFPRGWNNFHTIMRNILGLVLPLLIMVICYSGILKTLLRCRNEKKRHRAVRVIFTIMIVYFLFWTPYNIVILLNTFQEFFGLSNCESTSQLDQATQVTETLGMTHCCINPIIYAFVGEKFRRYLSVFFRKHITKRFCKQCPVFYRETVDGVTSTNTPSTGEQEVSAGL
The assay is described as follows: 125I MCP-1 binding to human peripheral blood mononuclear cells (PBMCs). The note with it: 100 pM 125I-labeled MCP-1, 37° C. 60 minutes. The procedure:
Fresh human blood (200 ml) was obtained from volunteer donors, collected into sodium citrate anticoagulant to give a final concentration of 0.38%. The blood was mixed with Sedimentation Buffer and incubated at 37° C. for 20 minutes. The supernatant was collected and centrifuged at 1700 rpm for 5 minutes (Sorvall RT6000D). The pellet obtained was resuspended in 20 ml RPMI/BSA (1 mg/ml) and 4×5 mls of cells were carefully layered over 4×5 mls of Lymphoprepa (Nycomed) in 15 ml centrifuge tubes. Tubes were spun at 1700 rpm for 30 minutes (Sorvall RT6000D) and the resultant layer of cells was removed and transferred to 50 ml Falcon tubes. The cells were washed twice in Lysis Buffer to remove any remaining red blood cells followed by 2 washes in RPMI/BSA. Cells were resuspended in 5 mls of Binding Buffer. Cell number was measured on a Coulter counter and additional binding buffer was added to give a final concentration of 1.25×10^7 PBMCs/ml. […]
Test compound potency was determined by assay in duplicate using six point dose-response curves and IC50 concentrations were determined.

Assay [2] has as its system THP-1 cells. The assay is described as follows: MCP-1 mediated calcium flux in THP-1 cells. Conditions: stimulation of THP-1 cells with hMCP-1; read-out: EC50 of rise in [Ca2+]i. In kind it is cell-based, human. The procedure:
The human monocytic cell line THP-1 as grown in a synthetic cell culture medium RPMI 1640 supplemented with 10% foetal calf serum, 6 mM glutamine and Penicillin-Streptomycin (at 50 μg streptomycin/ml, Gibco BRL). THP-1 cells were washed in HBSS (lacking Ca^2+ and Mg^2+)+1 mg/ml BSA and resuspended in the same buffer at a density of 3×10^6 cells/ml. The cells were then loaded with […] FURA-2/AM for 30 min at 37° C., washed twice in HBSS, and resuspended at 1×10^6 cells/mil. THP-1 cell suspension (0.9 ml) was added to a 5 ml disposable cuvette containing a magnetic stirrer bar and 2.1 ml of prewarmed (37° C.) HBSS containing 1 mg/ml BSA, 1 mM MgCl, and 2 mM CaCl2. The cuvette was placed in a fluorescence spectrophotometer (Perkin Elmer, Norwalk. Conn.) and preincubated for 4 min at 37° C. with stirring. Fluorescence was recorded over 70 sec and cells were stimulated by addition of hMCP-1 to the cuvette after 10 sec. [Ca^2+]i was measured by excitation at 340 nm and 380 nm alternately and subsequent measurement of the intensity of the fluorescence emission at 510 nm.
where the Kd for FURA-2 Ca^2+ complex at 37° C. was taken to be 224 nm. […]

Assay [3] deals with THP-1 cells. The assay is described as follows: hMCP-1 mediated chemotaxis of THP-1 cells. In kind it is cell-based, human. The note with it: biphasic response. The procedure:
In vitro chemotaxis assays were performed using the human monocytic cell line THP-1. Cell migration through polycarbonate membranes was measured by enumerating those passing through either directly by Coulter counting or indirectly by use of a colourimetric viability assay measuring the cleavage of a tetrazolium salt by the mitochondrial respiratory chain (Scudiero D. A. et al. 1988, Cancer Res., 48, 4827-4833).
Chemoattractants were introduced into a 96-well microtitre plate which forms the lower well of a chemotaxis chamber fitted with a PVP-free 5 μm poresize polycarbonate adhesive framed filter membrane (NeuroProbe MB series, Cabin John, Md. 20818. USA) according to the manufacturer's instructions. […] The plate was incubated at 37° C. for 3 h and the absorbance of the soluble formazan product was read on a microtitre plate reader at 450 nm. The data was input into a spreadsheet, corrected for any random migration in the absence of chemoattractant and the average absorbance values, standard error of the mean, and significance tests were calculated. hMCP-1 induced concentration dependent cell migration with a characteristic biphasic response, maximal […]. […]

Assay [4] has as its target T2, MCP-1 receptor B (CCR2B) (Homo sapiens, UniProt P41597).
T2 construct: expressed in transfected cells; host or cells: CHO-K1 (clone 7, CHO-CCR2B), membrane fragments
T2 sequence (P41597 1-360 isoform P41597-2): T1 sequence (P41597 1-360 isoform P41597-2)
Description: hMCP-1 receptor binding assay, 125I MCP-1 on CHO-CCR2B cell membranes. The source says:
The MCP-1 receptor B (CCR2B) cDNA was cloned by PCR from THP-1 cell RNA using suitable oligonucleotide primers based on the published MCP-1 receptor sequences (Charo et al., 1994, Proc. Natl. Acad. Sci. USA, 91, 2752). The resulting PCR products were cloned into vector PCR-II™ (InVitrogen, San Diego, Calif.). Error free CCR2B cDNA was subcloned as a Hind III-Not I fragment into the eukaryotic expression vector pCDNA3 (InVitrogen) to generate pCDNA3/CC-CKR2A and pCDNA3/CCR2B respectively.
Linearised pCDNA3/CCR2B DNA was transfected into CHO-K1 cells by calcium phosphate precipitation (Wigler et al., 1979, Cell, 16, 777). Transfected cells were selected by the addition of Geneticin Sulphate (G418, Gibco BRL) at 1 mg/ml, 24 hours after the cells had been transfected. Preparation of RNA and Northern blotting were carried out as described previously (Needham et al., 1995, Prot. Express. Purific., 6. 134). CHO-K1 clone 7 (CHO-CCR2B) was identified as the highest MCP-1 receptor B expressor.
CHO-CCR2B cells were grown in DMEM supplemented with 10% foetal calf serum, 2 mM glutamine. 1×Non-Essential Amino Acids. 1×Hypoxanthine and Thymidine Supplement and Penicillin-Streptomycin (at 50 μg streptomycin/ml, Gibco BRL). Membrane fragments were prepared using cell lysis/differential centrifugation methods as described previously (Siciliano et al., 1990, J. Biol. Chem., 265, 19658). […]

As a reminder, the IC50 is the concentration that gives 50% inhibition. A high value points to a need for much substance. What is called EC50 is the concentration needed to bring the measured effect to its halfway point. The term Kd denotes the concentration at which binding is half-saturated. A high value points to lower affinity.

Turning to `CS(=O)(=O)NCCNC(=O)c1cccc2c1cc(C(=O)O)n2Cc1ccc(Cl)c(Cl)c1` [Compound 9], the IC50 in assay [1] came out at 640 nM.
For the compound “MCP-1: Human Monocyte Chemoattractant Protein-1, a C—C chemokine, ligand of the MCP-1 (CCR2) receptor”, in assay [2], the EC50 is around 2 nM. Moreover, in assay [3], the “concentration of maximal cell migration” value was 0.5-1.0 nm. In addition, the IC50 in assay [4] (cold competition with 100 pM 125I-labeled MCP-1, CHO-CCR2B membrane fragments) was 0.11 nM. Also, binding in assay [4] (equilibrium binding, CHO-CCR2B membrane fragments) was characterised by a dissociation constant (Kd) of 0.12 nM.

The record behind these values is US6613760B1, “Indole derivatives and their use as MCP-1 receptor antagonists” (AstraZeneca AB, priority 1999, dated 2003).
